Test results from patent US10362781B2, “Methods of controlling the breeding behavior of butterflies” (University of the West Indies, a Regional Institution, …, priority 2010, dated 2019).

Tests used:
Format in all cases: in vivo, Heraclides andraemon
H. andraemon [1] = assay: Egg laying of Piper amalago var. amalago plant bred H. andraemon given a choice of plants on which to lay (Example 8); conditions: eggs laid on citrus plant sprayed with the substance, Piper amalago var. amalago-reared butterflies, choice of 4 plants
Source text: H. andraemon larvae were reared on Piper amalago var. amalago plant. When they pupated and were ready to lay eggs, the butterflies were given the choice of plants on which to lay eggs: unsprayed lime plants, unsprayed Piper amalago var. amalago plants, citrus plant sprayed with Piper amalago var. amalago plant oil, and citrus plant sprayed with d-limonene. The egg laying was permitted to continue until the butterflies ceased laying eggs.

H. andraemon [2] = assay: Egg laying of lime (citrus) plant bred H. andraemon given a choice of plants on which to lay (Example 7); conditions: eggs laid on Piper amalago var. amalago plants sprayed with the substance, lime plant-reared butterflies, choice of 4 plants
Protocol: The aerosol mixture for application to citrus plant and Piper amalago var. amalago plant materials was prepared by combining lime plant oil, Piper amalago var. amalago plant oil, d-limonene, or a combination thereof, with an alkane hydrocarbon mixture consisting of 28% butane and 72% propane. The aerosol was filled to a concentration of, e.g., 0.25% by weight of Piper amalago var. amalago plant oil in the hydrocarbon mixture or, e.g., 0.45% by weight of lime plant oil in the hydrocarbon mixture.
H. andraemon larvae were reared on lime plant. When they pupated and were ready to lay eggs, they were given the choice of plants on which to lay eggs: unsprayed lime plants, unsprayed Piper amalago var. amalago plants, Piper amalago var. amalago plants sprayed with lime plant oil, and Piper amalago var. amalago plants sprayed with d-limonene. Egg laying was permitted to continue until the butterflies ceased laying eggs. Nearly 100% of the eggs laid hatched into larvae.
Table 5 summarizes the results of an experiment in which the faithfulness of egg laying on the species of plant on which the butterflies were reared was confirmed. In this experiment, both lime plant oil and d-limonene were sprayed onto Piper amalago var. amalago plant to determine whether the butterflies discriminated between the two.

H. andraemon [3] = assay: H. andraemon egg laying on lime plant seedling and P. aduncum, choice of four plants (Example 9); conditions: P. aduncum cuttings sprayed twice daily with 0.15% d-limonene aerosol; choice of 4 plants
Source text: Butterflies were induced to lay on host plant Piper aduncum plant sprayed with lime plant oil, or lime plant sprayed with Piper aduncum plant oil. Piper aduncum shoots were collected in Andrew, Jamaica, and 297.35 g of leaves were placed in a Clevenger-type extractor and extracted with boiling water. Once extracted according to the methods described in Example 2, 0.8919 g of a clear oil with a minty-like odor was obtained, a yield of 0.30% by weight.
Four Heraclides andraemon pupae were placed in the cage previously described in Example 1. Three pupae hatched into adults, two males and a female, which were allowed to mate and lay eggs. They were given a choice of four types of plants on which to lay: unsprayed Piper aduncum cuttings; Piper aduncum cuttings sprayed with d-limonene; unsprayed lime seedlings; and lime seedlings sprayed with the Piper aduncum emulsion. These plants, all with young leaves, were placed around the cage.
Cuttings from the Piper aduncum shoots with young leaves were used to attempt to induce butterflies to feed and lay eggs on a Piper aduncum plant treated with lime plant extract. The Piper aduncum cuttings were sprayed twice daily for eight days, once in the morning and once in the afternoon, with a d-limonene aerosol formulation. The d-limonene aerosol formulation was prepared as a hydrocarbon mixture of 72% propane and 28% butane, with 0.15% d-limonene. […]

Compound: C=C(C)[C@H]1CC=C(C)CC1 [d-limonene]
- % of eggs laid (H. andraemon [1]): 13.47%
- No. of eggs laid (H. andraemon [1]; total 193 eggs): 26
- % of eggs laid (H. andraemon [2]): 25.00%
- No. of eggs laid (H. andraemon [2]; total 208 eggs): 52
- % of eggs laid (H. andraemon [3]): 0%
- No. of Eggs after 5 Days (H. andraemon [3]): 0
